This is an account of results in patent US6825172B2, “3-descladinosyl-6-O-carbamoyl and 6-O-carbonoyl macrolide antibacterial agents” (Janssen Pharmaceutica, NV, priority 2002, dated 2004).

Common to all, as to assay: MIC, microdilution broth method (NCCLS)
What all share (type): cell-based
Background: Broth dilution looks for growth in wells or tubes with falling amounts of substance.

The test system of assay [1] is E. coli OC2605. As to conditions: Escherichia coli. The essentials: (§1)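 NCCLS M7-A4 broth microdilution: two-fold drug dilutions in cation-adjusted Mueller-Hinton broth, inoculum approximately 5×10^4 CFU/well. Trays incubated at 35 °C for 16-20 hours. MIC read by comparing growth to compound-free growth controls.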
In assay [2] the test system is E. faecalis ATCC29212. Particulars: Enterococcus faecalis, read-out: MIC Values, C: E. faecalis ATCC29212. A digest of the protocol:
as §1

Assay [3] concerns H. influenzae ATCC49247. As to conditions: Haemophilus influenzae, read-out: MIC Values, E: H. influenzae ATCC49247. A digest of the protocol:
as §1

Assay [4] deals with S. aureus ATCC29213. Particulars: Staphylococcus aureus, read-out: MIC Values, B: S. aureus ATCC29213. The essentials: as §1
Assay [5] concerns S. pneumoniae ATCC49619. As to conditions: Streptococcus pneumoniae, read-out: MIC Values, D: S. pneumoniae ATCC49619. A digest of the protocol:
as §1

The mark [6] stands for this setting: Table 1, 6-Carbamoyl-3-Acyl Macrolide Derivatives, read-out: MIC Values, A: E. coli OC2605.
[7] abbreviates: Table 1, 6-Carbamoyl-3-Acyl Macrolide Derivatives.
Where [8] appears, read: Table 2, 3,6-Dicarbamoyl Macrolide Derivatives, read-out: MIC Values, A: E. coil OC2605.
Where [9] appears, read: Table 2, 3,6-Dicarbamoyl Macrolide Derivatives.

Each structure is given as a SMILES string. In brackets after ≈: the same amount, converted by molar mass. Where two headings read alike, the source gives them in different places.

`CC[C@H]1OC(=O)[C@H](C)[C@@H](OC(=O)Cc2ccncc2)[C@H](C)[C@@H](O[C@@H]2O[C@H](C)C[C@H](N(C)C)[C@H]2O)[C@](C)(OC(=O)NC/C=C/c2ccc(-c3ncccn3)cc2)C[C@@H](C)C(=O)[C@H](C)[C@H]2NC(=O)O[C@@]21C` [Compound 8]: the MIC in assay [1] (setting [6]) worked out at 16 µg/mL (≈ 16.7 µM); in assay [2] (setting [7]), 0.25 µg/mL (≈ 0.261 µM); in assay [3] (setting [7]) it was 2 µg/mL (≈ 2.09 µM); in assay [4] (setting [7]), 0.5 µg/mL (≈ 0.522 µM); in assay [5] (setting [7]), 0.06 µg/mL (≈ 0.0627 µM).
The like results for `CC[C@H]1OC(=O)[C@H](C)[C@@H](OC(=O)C(C)C)[C@H](C)[C@@H](O[C@@H]2O[C@H](C)C[C@H](N(C)C)[C@H]2O)[C@](C)(OC(=O)NC/C=C/c2cnc3ccccc3c2)C[C@@H](C)C(=O)[C@H](C)[C@H]2NC(=O)O[C@@]21C` [Compound 31, Propanoic acid, 2-methyl-, (3aS,4R,7R,8S,9S,10R,11R,13R,15R,15aR)-4-ethyltetradecahydro-3a,7,9,11,13,15-hexamethyl-2,6,14-trioxo-11-[[[[(2E)-3-(3-quinolinyl)-2-propenyl]amino]carbonyl]oxy]-10-[[3,4,6-trideoxy-3-(dimethylamino)-β-D-xylo-hexopyranosyl]oxy]-2H-oxacyclotetradecino[4,3-d]oxazol-8-yl ester] were, in that order, 8 µg/mL (≈ 9.08 µM), 0.25 µg/mL (≈ 0.284 µM), 4 µg/mL (≈ 4.54 µM), 0.5 µg/mL (≈ 0.567 µM) and 0.03 µg/mL (≈ 0.034 µM).
As for `CC[C@H]1OC(=O)[C@H](C)[C@@H](OC(=O)CC2CC2)[C@H](C)[C@@H](O[C@@H]2O[C@H](C)C[C@H](N(C)C)[C@H]2O)[C@](C)(OC(=O)NC/C=C/c2ccc(-c3ncccn3)cc2)C[C@@H](C)C(=O)[C@H](C)[C@H]2NC(=O)O[C@@]21C` [Compound 13], the MIC was greater than 16 µg/mL in assay [1] (setting [6]); 0.5 µg/mL (≈ 0.543 µM) in assay [2] (setting [7]); 8 µg/mL (≈ 8.69 µM) in assay [3] (setting [7]); 0.5 µg/mL (≈ 0.543 µM) in assay [4] (setting [7]); 0.06 µg/mL (≈ 0.0652 µM) in assay [5] (setting [7]).
As for `CC[C@H]1OC(=O)[C@H](C)[C@@H](OC(C)=O)[C@H](C)[C@@H](O[C@@H]2O[C@H](C)C[C@H](N(C)C)[C@H]2O)[C@](C)(OC(=O)NC/C=C/c2ccc(-c3ncccn3)cc2)C[C@@H](C)C(=O)[C@H](C)[C@H]2NC(=O)O[C@@]21C` [Compound 12], the MIC in assay [1] (setting [6]) is greater than 16 µg/mL; in assay [2] (setting [7]), 0.25 µg/mL (≈ 0.284 µM); in assay [3] (setting [7]) it was 8 µg/mL (≈ 9.09 µM); in assay [4] (setting [7]), 1 µg/mL (≈ 1.14 µM); in assay [5] (setting [7]) it was 0.06 µg/mL (≈ 0.0682 µM).
On the same counts, the results for `CC[C@H]1OC(=O)[C@H](C)[C@@H](OC(=O)Cc2cccnc2)[C@H](C)[C@@H](O[C@@H]2O[C@H](C)C[C@H](N(C)C)[C@H]2O)[C@](C)(OC(=O)NC/C=C/c2ccc(-c3ncccn3)cc2)C[C@@H](C)C(=O)[C@H](C)[C@H]2NC(=O)O[C@@]21C` [Compound 4, 3-Pyridineacetic acid, (3aS,4R,7R,8S,9S,10R,11R,13R,15R,15aR)-4-ethyltetradecahydro-3a,7,9,11,13,15-hexamethyl-2,6,14-trioxo-11-[[[[(2E)-3-[4-(2-pyrimidinyl)phenyl]-2-propenyl]amino]carbonyl]oxy]-10-[[3,4,6-trideoxy-3-(dimethylamino)-β-D-xylo-hexopyranosyl]oxy]-2H-oxacyclotetradecino[4,3-d]oxazol-8-yl ester] are 8 µg/mL (≈ 8.36 µM), 0.25 µg/mL (≈ 0.261 µM), 2 µg/mL (≈ 2.09 µM), 0.25 µg/mL (≈ 0.261 µM) and 0.06 µg/mL (≈ 0.0627 µM).
In the case of `CC[C@H]1OC(=O)[C@H](C)[C@@H](OC(=O)Nc2ccc3ccccc3c2)[C@H](C)[C@@H](O[C@@H]2O[C@H](C)C[C@H](N(C)C)[C@H]2O)[C@](C)(OC(=O)NC/C=C/c2ccc(-c3ncccn3)cc2)C[C@@H](C)C(=O)[C@H](C)[C@H]2NC(=O)O[C@@]21C` [Compound 53], the MIC in assay [1] (setting [8]) is greater than 16 µg/mL; in assay [2] (setting [9]) it was 1 µg/mL (≈ 0.993 µM); in assay [3] (setting [9]), greater than 16 µg/mL; in assay [4] (setting [9]), 2 µg/mL (≈ 1.99 µM); in assay [5] (setting [9]) it was 0.25 µg/mL (≈ 0.248 µM).
Turning to `CC[C@H]1OC(=O)[C@H](C)[C@@H](OC(=O)Cc2cccnc2)[C@H](C)[C@@H](O[C@@H]2O[C@H](C)C[C@H](N(C)C)[C@H]2O)[C@](C)(OC(=O)NC/C=C/c2cnc(C3CC3)nc2)C[C@@H](C)C(=O)[C@H](C)[C@H]2NC(=O)O[C@@]21C` [Compound 39], the MIC is 16 µg/mL (≈ 17.4 µM) in assay [1] (setting [6]); 0.5 µg/mL (≈ 0.543 µM) in assay [2] (setting [7]); 2 µg/mL (≈ 2.17 µM) in assay [3] (setting [7]); 1 µg/mL (≈ 1.09 µM) in assay [4] (setting [7]); 0.06 µg/mL (≈ 0.0651 µM) in assay [5] (setting [7]).
Take `CC[C@H]1OC(=O)[C@H](C)[C@@H](OC(=O)Cc2cccnc2)[C@H](C)[C@@H](O[C@@H]2O[C@H](C)C[C@H](N(C)C)[C@H]2O)[C@](C)(OC(=O)NC/C=C/c2cncnc2)C[C@@H](C)C(=O)[C@H](C)[C@H]2NC(=O)O[C@@]21C` [Compound 40]: the MIC is greater than 16 µg/mL in assay [1] (setting [6]); 0.5 µg/mL (≈ 0.568 µM) in assay [2] (setting [7]); 2 µg/mL (≈ 2.27 µM) in assay [3] (setting [7]); 1 µg/mL (≈ 1.14 µM) in assay [4] (setting [7]); 0.12 µg/mL (≈ 0.136 µM) in assay [5] (setting [7]).
The like results for `CC[C@H]1OC(=O)[C@H](C)[C@@H](OC(=O)Cc2cccnc2)[C@H](C)[C@@H](O[C@@H]2O[C@H](C)C[C@H](N(C)C)[C@H]2O)[C@](C)(OC(=O)NC/C=C/C=C/c2cccnc2)C[C@@H](C)C(=O)[C@H](C)[C@H]2NC(=O)O[C@@]21C` [Compound 23] were, in that order, 16 µg/mL (≈ 17.7 µM), 0.25 µg/mL (≈ 0.276 µM), 4 µg/mL (≈ 4.41 µM), 1 µg/mL (≈ 1.1 µM) and 0.03 µg/mL (≈ 0.0331 µM).
The like results for `CC[C@H]1OC(=O)[C@H](C)[C@@H](OC(=O)c2cnccn2)[C@H](C)[C@@H](O[C@@H]2O[C@H](C)C[C@H](N(C)C)[C@H]2O)[C@](C)(OC(=O)NC/C=C/c2ccc(-c3ncccn3)cc2)C[C@@H](C)C(=O)[C@H](C)[C@H]2NC(=O)O[C@@]21C` [Compound 5] were, in that order, greater than 16 µg/mL, 0.5 µg/mL (≈ 0.53 µM), 8 µg/mL (≈ 8.47 µM), 0.5 µg/mL (≈ 0.53 µM) and 0.06 µg/mL (≈ 0.0636 µM).
In the case of `CC[C@H]1OC(=O)[C@H](C)[C@@H](OC(=O)/C(=N/OC)c2cccnc2)[C@H](C)[C@@H](O[C@@H]2O[C@H](C)C[C@H](N(C)C)[C@H]2O)[C@](C)(OC(=O)NC/C=C/c2ccc(-c3ncccn3)cc2)C[C@@H](C)C(=O)[C@H](C)[C@H]2NC(=O)O[C@@]21C` [Compound 43], the MIC in assay [1] (setting [6]) was 16 µg/mL (≈ 16 µM); in assay [2] (setting [7]), 1 µg/mL (≈ 1 µM); in assay [3] (setting [7]), 8 µg/mL (≈ 8 µM); in assay [4] (setting [7]) it was 1 µg/mL (≈ 1 µM); in assay [5] (setting [7]), 0.12 µg/mL (≈ 0.12 µM).
With `CC[C@H]1OC(=O)[C@H](C)[C@@H](OC(=O)N(C)c2cccnc2)[C@H](C)[C@@H](O[C@@H]2O[C@H](C)C[C@H](N(C)C)[C@H]2O)[C@](C)(OC(=O)NC/C=C/c2ccc(-c3ncccn3)cc2)C[C@@H](C)C(=O)[C@H](C)[C@H]2NC(=O)O[C@@]21C` [Compound 60], the MIC in assay [1] (setting [8]) was greater than 16 µg/mL; in assay [2] (setting [9]), 0.5 µg/mL (≈ 0.514 µM); in assay [3] (setting [9]), 4 µg/mL (≈ 4.11 µM); in assay [4] (setting [9]), 1 µg/mL (≈ 1.03 µM); in assay [5] (setting [9]), 0.06 µg/mL (≈ 0.0617 µM).
As for `CC[C@H]1OC(=O)[C@H](C)[C@@H](OC(=O)C(C)C)[C@H](C)[C@@H](O[C@@H]2O[C@H](C)C[C@H](N(C)C)[C@H]2O)[C@](C)(OC(=O)NC/C=C/c2cccnc2)C[C@@H](C)C(=O)[C@H](C)[C@H]2NC(=O)O[C@@]21C` [Compound 17], the MIC amounted to 16 µg/mL (≈ 19.3 µM) in assay [1] (setting [6]); 0.25 µg/mL (≈ 0.301 µM) in assay [2] (setting [7]); 1 µg/mL (≈ 1.2 µM) in assay [3] (setting [7]); 0.5 µg/mL (≈ 0.602 µM) in assay [4] (setting [7]); 0.06 µg/mL (≈ 0.0722 µM) in assay [5] (setting [7]).
